Data on nine compounds can be found in ChEMBL document CHEMBL5291721, “A preclinical secondary pharmacology resource illuminates target-adverse drug reaction associations of marketed drugs” (Nat Commun, 2023).

Assay [1] addresses Acetylcholinesterase (Homo sapiens, UniProt P22303). The assay is classed as functional.
In assay [2] the target is T1, Alpha-2A adrenergic receptor (Homo sapiens, UniProt P08913).
T1 sequence (P08913 whole entry): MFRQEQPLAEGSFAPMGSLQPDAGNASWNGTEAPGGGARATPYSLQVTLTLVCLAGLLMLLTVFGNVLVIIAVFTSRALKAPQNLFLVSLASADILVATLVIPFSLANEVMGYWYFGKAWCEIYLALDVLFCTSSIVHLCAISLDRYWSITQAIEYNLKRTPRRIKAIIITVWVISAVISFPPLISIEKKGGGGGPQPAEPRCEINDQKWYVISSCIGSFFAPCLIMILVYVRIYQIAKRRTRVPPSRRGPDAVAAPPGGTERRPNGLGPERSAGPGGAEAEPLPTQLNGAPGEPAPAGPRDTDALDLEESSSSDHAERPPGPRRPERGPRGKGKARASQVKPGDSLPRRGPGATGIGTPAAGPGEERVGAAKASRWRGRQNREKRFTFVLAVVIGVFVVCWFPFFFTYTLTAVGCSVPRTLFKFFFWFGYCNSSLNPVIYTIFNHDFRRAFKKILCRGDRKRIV

The target of assay [3] is T2, Muscarinic acetylcholine receptor M2 (Homo sapiens, UniProt P08172).
T2 sequence (P08172 whole entry): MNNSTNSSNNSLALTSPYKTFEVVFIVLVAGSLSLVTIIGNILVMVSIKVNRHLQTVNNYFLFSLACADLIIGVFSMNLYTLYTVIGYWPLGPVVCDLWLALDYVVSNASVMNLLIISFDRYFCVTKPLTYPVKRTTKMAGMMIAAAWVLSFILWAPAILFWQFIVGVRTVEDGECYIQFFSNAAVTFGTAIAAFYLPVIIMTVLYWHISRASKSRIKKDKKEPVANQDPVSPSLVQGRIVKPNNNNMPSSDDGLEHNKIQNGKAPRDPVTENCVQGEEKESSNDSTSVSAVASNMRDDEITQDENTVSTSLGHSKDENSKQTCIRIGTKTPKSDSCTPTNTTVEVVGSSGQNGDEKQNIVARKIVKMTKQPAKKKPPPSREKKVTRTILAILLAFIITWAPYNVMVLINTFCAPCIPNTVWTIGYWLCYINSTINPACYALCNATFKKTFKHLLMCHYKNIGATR

Assay [4] deals with Prothrombin (Homo sapiens, UniProt P00734). The assay is classed as functional.
Assay [5] concerns the target Histamine H3 receptor (Homo sapiens, UniProt Q9Y5N1).
Assay [6] addresses T3, 5-hydroxytryptamine receptor 1A (Homo sapiens, UniProt P08908).
T3 sequence (P08908 whole entry): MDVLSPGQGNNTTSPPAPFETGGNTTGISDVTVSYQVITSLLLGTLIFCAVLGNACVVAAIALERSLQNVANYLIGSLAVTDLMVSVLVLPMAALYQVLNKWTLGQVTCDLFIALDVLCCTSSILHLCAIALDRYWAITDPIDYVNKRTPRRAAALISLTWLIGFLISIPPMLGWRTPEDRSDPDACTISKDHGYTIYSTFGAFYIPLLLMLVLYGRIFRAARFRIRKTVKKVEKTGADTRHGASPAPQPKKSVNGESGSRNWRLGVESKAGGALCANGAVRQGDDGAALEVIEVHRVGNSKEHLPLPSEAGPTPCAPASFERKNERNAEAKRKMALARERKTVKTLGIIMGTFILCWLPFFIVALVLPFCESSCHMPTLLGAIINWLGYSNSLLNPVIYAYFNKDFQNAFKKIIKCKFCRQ

For assay [7], the target named is 5-hydroxytryptamine receptor 2B (Homo sapiens, UniProt P41595). The class given is functional, cell-based.
5-hydroxytryptamine receptor 2B, sequence (P41595 whole entry): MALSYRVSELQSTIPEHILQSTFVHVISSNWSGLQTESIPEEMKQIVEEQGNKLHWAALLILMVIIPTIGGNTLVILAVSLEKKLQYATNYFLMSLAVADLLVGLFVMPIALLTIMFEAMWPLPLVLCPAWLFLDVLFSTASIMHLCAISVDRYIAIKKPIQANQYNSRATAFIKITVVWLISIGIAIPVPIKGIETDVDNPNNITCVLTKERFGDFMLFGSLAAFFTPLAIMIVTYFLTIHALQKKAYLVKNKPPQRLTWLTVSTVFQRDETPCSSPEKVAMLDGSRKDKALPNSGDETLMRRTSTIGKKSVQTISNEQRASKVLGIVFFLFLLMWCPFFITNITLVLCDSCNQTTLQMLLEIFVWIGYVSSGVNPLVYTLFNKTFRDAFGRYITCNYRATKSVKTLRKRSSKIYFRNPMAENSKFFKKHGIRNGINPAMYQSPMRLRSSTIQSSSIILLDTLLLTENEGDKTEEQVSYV
Assay [8] concerns the target Voltage-gated inwardly rectifying potassium channel KCNH2 (Homo sapiens, UniProt Q12809). The assay is classed as functional.
Assay [9] has as its target T4, Amine oxidase [flavin-containing] A (Homo sapiens, UniProt P21397).
T4 sequence (P21397 whole entry): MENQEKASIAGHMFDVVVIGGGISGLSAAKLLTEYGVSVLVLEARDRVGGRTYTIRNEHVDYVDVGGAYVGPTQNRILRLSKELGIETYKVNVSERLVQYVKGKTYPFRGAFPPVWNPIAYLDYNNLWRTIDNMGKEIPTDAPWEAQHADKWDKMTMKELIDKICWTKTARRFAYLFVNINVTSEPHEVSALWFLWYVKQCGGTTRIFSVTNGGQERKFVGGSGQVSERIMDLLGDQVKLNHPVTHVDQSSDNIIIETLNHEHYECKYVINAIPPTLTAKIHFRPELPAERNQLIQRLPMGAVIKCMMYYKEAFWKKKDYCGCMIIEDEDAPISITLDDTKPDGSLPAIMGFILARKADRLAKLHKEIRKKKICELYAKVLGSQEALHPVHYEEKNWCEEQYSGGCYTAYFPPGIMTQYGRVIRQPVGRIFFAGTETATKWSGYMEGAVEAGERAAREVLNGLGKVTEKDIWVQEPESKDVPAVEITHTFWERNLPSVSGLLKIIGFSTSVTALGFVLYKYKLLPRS
The class given is functional.

The target of assay [10] is cGMP-inhibited 3',5'-cyclic phosphodiesterase 3A (Homo sapiens, UniProt Q14432). The assay is classed as functional.
cGMP-inhibited 3',5'-cyclic phosphodiesterase 3A, sequence (Q14432 whole entry): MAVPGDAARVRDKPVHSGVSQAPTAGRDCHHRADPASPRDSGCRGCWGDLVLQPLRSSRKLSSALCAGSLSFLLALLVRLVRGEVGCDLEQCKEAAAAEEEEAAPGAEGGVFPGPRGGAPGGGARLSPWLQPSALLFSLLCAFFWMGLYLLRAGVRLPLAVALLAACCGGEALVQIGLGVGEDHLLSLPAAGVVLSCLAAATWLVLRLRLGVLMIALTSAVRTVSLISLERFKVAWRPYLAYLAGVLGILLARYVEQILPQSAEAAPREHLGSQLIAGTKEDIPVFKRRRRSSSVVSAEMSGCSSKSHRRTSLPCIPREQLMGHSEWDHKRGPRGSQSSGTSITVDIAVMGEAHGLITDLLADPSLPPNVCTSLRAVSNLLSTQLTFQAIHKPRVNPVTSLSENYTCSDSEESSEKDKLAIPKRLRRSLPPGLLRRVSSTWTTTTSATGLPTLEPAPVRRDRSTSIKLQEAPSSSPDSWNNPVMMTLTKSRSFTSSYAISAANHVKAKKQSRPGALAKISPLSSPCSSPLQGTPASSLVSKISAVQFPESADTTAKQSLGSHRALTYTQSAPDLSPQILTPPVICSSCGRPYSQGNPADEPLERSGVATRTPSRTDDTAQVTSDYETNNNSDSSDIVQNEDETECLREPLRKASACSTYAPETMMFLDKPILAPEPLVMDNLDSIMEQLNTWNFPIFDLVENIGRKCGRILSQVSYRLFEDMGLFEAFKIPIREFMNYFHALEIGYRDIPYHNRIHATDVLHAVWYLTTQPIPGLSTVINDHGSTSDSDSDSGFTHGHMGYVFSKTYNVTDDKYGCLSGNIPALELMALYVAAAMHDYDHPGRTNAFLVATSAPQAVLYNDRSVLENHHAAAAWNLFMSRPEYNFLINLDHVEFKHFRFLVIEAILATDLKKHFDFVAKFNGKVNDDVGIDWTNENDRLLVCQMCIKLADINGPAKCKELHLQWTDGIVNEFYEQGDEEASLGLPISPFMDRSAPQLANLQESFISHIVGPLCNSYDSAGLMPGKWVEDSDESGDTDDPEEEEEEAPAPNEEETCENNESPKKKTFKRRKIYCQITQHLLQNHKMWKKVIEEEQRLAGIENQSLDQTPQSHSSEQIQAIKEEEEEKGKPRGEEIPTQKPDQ
Assay [11] has as its target 3',5'-cyclic-AMP phosphodiesterase 4A (Homo sapiens, UniProt P27815). The class given is functional.
Assay [12] has as its target Sodium-dependent dopamine transporter (Homo sapiens, UniProt Q01959).
The target of assay [13] is T5, Thromboxane A2 receptor (Homo sapiens, UniProt P21731).
T5 sequence (P21731 whole entry): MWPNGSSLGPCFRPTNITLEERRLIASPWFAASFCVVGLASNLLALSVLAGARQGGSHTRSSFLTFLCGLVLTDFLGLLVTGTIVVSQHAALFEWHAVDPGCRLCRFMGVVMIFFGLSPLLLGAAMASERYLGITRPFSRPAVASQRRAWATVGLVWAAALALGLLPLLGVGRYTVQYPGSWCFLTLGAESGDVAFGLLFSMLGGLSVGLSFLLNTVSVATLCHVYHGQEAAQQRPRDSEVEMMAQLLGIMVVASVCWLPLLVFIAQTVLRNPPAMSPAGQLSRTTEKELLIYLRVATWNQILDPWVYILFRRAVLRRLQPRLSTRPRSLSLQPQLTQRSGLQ
The class given is functional, cell-based.

Assay [14] addresses T5, Thromboxane A2 receptor. The class given is functional, cell-based. The source holds these as a separate data set.

Bounds are passed on as bounds.
Further: assay procedure not described here.

3',5'-cyclic-AMP phosphodiesterase 4A, sequence (P27815 whole entry): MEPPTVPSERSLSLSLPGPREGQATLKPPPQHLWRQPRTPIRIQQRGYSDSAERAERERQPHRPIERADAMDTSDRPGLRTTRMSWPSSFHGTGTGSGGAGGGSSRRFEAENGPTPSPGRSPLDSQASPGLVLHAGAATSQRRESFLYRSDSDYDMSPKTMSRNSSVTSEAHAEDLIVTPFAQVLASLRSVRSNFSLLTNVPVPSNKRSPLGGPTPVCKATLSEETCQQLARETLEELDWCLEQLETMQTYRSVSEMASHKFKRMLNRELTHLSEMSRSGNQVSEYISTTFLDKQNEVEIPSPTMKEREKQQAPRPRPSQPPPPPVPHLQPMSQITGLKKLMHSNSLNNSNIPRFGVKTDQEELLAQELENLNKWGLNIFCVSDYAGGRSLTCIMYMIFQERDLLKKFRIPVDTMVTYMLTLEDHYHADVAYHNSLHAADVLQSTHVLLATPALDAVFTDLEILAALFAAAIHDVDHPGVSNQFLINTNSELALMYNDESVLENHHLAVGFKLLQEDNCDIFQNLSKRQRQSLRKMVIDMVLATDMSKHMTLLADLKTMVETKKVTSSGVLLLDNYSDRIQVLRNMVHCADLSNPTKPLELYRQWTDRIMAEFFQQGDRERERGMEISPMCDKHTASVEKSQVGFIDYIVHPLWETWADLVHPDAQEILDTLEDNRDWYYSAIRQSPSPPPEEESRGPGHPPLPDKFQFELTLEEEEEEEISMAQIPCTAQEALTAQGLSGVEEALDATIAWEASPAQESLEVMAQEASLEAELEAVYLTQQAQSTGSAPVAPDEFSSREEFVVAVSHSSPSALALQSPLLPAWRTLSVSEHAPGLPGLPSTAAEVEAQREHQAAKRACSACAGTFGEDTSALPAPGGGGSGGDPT
Sodium-dependent dopamine transporter, sequence (Q01959 whole entry): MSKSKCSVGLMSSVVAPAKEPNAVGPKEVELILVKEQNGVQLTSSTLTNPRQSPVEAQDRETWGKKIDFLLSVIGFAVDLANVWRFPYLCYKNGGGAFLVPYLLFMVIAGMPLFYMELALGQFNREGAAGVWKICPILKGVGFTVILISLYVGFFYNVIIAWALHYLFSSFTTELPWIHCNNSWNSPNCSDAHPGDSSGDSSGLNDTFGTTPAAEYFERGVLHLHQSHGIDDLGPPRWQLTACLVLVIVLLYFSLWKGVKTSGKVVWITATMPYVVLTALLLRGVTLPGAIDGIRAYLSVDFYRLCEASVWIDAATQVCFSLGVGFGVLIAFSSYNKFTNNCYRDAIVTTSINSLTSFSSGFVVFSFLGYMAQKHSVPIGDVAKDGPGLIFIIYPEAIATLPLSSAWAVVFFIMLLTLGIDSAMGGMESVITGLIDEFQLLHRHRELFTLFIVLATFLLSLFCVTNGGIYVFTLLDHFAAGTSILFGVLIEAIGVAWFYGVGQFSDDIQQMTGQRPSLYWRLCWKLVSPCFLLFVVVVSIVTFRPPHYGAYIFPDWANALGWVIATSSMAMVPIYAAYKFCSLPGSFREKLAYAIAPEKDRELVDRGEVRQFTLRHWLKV
Voltage-gated inwardly rectifying potassium channel KCNH2, sequence (Q12809 whole entry): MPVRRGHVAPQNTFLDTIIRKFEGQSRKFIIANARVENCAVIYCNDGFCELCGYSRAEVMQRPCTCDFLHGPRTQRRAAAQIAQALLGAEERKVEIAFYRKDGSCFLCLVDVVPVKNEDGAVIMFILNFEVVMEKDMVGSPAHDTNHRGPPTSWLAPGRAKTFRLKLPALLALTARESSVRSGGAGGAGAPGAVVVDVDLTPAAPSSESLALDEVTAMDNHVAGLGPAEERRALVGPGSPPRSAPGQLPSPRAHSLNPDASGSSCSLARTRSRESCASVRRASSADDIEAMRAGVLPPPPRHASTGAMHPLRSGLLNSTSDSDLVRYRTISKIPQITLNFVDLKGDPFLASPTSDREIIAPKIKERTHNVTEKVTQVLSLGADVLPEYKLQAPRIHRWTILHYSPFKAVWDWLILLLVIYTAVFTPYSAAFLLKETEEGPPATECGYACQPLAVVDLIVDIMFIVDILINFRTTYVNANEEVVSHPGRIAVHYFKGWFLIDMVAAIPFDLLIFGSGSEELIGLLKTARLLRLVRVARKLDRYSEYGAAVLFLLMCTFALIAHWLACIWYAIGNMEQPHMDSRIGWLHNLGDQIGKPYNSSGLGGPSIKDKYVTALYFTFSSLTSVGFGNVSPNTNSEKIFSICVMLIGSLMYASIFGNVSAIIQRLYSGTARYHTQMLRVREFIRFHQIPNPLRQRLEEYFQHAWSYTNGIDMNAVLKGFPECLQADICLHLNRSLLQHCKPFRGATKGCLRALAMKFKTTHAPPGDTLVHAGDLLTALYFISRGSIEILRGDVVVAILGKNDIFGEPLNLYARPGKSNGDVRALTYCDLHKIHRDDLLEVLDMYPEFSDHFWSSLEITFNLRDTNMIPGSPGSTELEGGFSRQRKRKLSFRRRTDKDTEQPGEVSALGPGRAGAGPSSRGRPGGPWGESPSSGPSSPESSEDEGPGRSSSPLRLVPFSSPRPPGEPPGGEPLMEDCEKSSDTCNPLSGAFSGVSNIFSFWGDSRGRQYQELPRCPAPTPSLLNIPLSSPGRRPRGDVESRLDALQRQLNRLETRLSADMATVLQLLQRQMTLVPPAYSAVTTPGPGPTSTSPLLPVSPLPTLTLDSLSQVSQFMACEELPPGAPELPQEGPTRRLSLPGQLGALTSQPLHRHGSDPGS
Acetylcholinesterase, sequence (P22303 whole entry): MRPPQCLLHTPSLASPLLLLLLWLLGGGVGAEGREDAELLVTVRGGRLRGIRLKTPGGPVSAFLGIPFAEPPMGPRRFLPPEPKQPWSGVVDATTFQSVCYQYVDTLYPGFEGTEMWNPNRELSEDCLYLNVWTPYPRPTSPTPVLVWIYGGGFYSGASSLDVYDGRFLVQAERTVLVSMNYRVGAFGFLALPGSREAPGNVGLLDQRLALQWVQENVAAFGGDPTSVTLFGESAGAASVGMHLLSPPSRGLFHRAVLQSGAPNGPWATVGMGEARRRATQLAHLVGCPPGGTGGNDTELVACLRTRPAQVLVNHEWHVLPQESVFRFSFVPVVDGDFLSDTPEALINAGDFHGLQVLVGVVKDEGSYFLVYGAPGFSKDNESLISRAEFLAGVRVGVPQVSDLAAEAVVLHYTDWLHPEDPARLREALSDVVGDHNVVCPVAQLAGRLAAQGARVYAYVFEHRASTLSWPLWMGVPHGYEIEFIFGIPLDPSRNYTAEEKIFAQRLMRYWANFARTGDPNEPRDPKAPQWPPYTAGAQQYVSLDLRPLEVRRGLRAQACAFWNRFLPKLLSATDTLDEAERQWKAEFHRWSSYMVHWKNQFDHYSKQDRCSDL

The AC50 is the concentration at which the activity in the assay is half-maximal. Read a low AC50 as activity at low concentration. Consider `CC(COc1ccccc1)NC(C)C(O)c1ccc(O)cc1` (stereo unspecified) [ISOXSUPRINE], for which the AC50 in assay [1] was greater than 30 µM; in [2] it was 0.446 µM; in assay [3] it was greater than 30 µM; in assay [4], greater than 30 µM; in assay [5] it was greater than 30 µM; in assay [6] it was 0.203 µM. The AC50 in assay [7] was greater than 30 µM; in assay [8] it was 15 µM; in assay [9] it was greater than 10 µM; in assay [10], greater than 30 µM; in [11], greater than 30 µM; in [12], 0.625 µM. Also, the AC50 in assay [13] and in assay [14] was greater than 30 µM in each case.
`Clc1ccc(C(Cn2ccnc2)OCc2csc3c(Cl)cccc23)c(Cl)c1` (stereo unspecified) [SERTACONAZOLE]: the AC50 is greater than 30 µM in assay [1]; 3.8 µM in [2]; 6.26 µM in [3]; greater than 30 µM in assay [4]; 23.3 µM in [5]; 12.4 µM in assay [6]. In addition, the AC50 in assay [7] is greater than 30 µM; in assay [8], 1.7 µM; in assay [9], greater than 30 µM; in assay [10], greater than 30 µM; in assay [11], 17.7 µM; in assay [12], 1.88 µM. Moreover, the AC50 in assay [13] was greater than 30 µM; in assay [14], 14.5 µM.
In the case of `Cc1ccc(S(=O)(=O)NC(=O)NC2CCCCC2)cc1` [GLYCYCLAMIDE], the AC50 in [1], in assay [2], in assay [3], in [4], in [5] and in assay [6] was greater than 30 µM throughout. Besides, the AC50 in [7], in assay [8], in assay [9], in [10], in assay [11] and in assay [12] was greater than 30 µM each time. Also, the AC50 in assay [13] and in assay [14] was greater than 30 µM in each case.
Take `N#Cc1ccc(Oc2ccc3c(c2)COB3O)cc1` [CRISABOROLE]: the AC50 in [1], in assay [2], in [3], in assay [4], in assay [5] and in assay [6] was greater than 30 µM in each case. Also, the AC50 in [7] is greater than 30 µM; in assay [8], greater than 30 µM; in [9], greater than 30 µM; in [10], 14.7 µM; in [11] it was 0.337 µM; in assay [12], greater than 30 µM. In addition, the half-maximal activity concentration (AC50) in assay [13] and in [14] was greater than 30 µM in each case.
Consider `C[C@H](CCC(=O)O)[C@H]1CC[C@H]2[C@@H]3[C@H](O)C[C@@H]4C[C@H](O)CC[C@]4(C)[C@H]3C[C@H](O)[C@]12C` [CHOLIC ACID], for which the AC50 in assay [1], in [2], in assay [3], in assay [4], in assay [5] and in assay [6] was greater than 30 µM throughout. Besides, the AC50 is greater than 30 µM in assay [7]; greater than 30 µM in assay [8]; greater than 30 µM in assay [9]; 13.8 µM in assay [10]; greater than 30 µM in assay [11]; greater than 30 µM in [12]. The AC50 in [13] and in [14] was greater than 30 µM each time.
With `N[C@@H](Cc1ccccc1)C(=O)O` [PHENYLALANINE], the AC50 in [1], in assay [2], in assay [3], in assay [4], in assay [5] and in [6] was greater than 30 µM in each case. In addition, the AC50 in assay [7], in assay [8], in assay [9], in assay [10], in assay [11] and in assay [12] was greater than 30 µM each time. Also, the AC50 in assay [13] and in assay [14] was greater than 30 µM throughout.
As for `COC(=O)C[C@](O)(CCCC(C)(C)O)C(=O)O[C@@H]1C(OC)=C[C@]23CCCN2CCc2cc4c(cc2[C@H]13)OCO4` [OMACETAXINE MEPESUCCINATE], the AC50 in assay [1], in [2], in assay [3], in assay [4], in [5] and in [6] was greater than 30 µM throughout. For the same compound, the AC50 in [7], in [8], in assay [9], in assay [10], in [11] and in [12] was greater than 30 µM in each case. The AC50 in [13] and in [14] was greater than 30 µM in each case.
In the case of `NC(=O)[C@@H]1CC[C@@H]2CN1C(=O)N2OS(=O)(=O)O` [AVIBACTAM], the AC50 in [1], in assay [2], in [3], in assay [4], in assay [5] and in [6] was greater than 30 µM in each case. Besides, the AC50 in [7], in assay [8], in assay [9], in assay [10], in assay [11] and in [12] was greater than 30 µM each time. The AC50 in [13] and in assay [14] was greater than 30 µM in each case.
Turning to `Cc1oc(=O)oc1COC(=O)[C@@H]1N2C(=O)[C@@H](NC(=O)[C@H](N)c3ccccc3)[C@H]2SC1(C)C` [LENAMPICILLIN], the AC50 in assay [1], in assay [2], in assay [3], in assay [4], in assay [5] and in assay [6] was greater than 30 µM each time. Moreover, the half-maximal activity concentration (AC50) in [7], in [8], in assay [9], in assay [10], in assay [11] and in assay [12] was greater than 30 µM throughout. Besides, the figures for the AC50 in [13] and in assay [14] were greater than 30 µM and 24.9 µM, respectively.
